Data: the NIST ThermoML archive (doi:10.1021/acs.jced.7b00712)

Conditions: Brillouin light scattering

CCCCCCCC [octane]
Conditions | speed of sound [m/s]
573.03 K, 7000 kPa, Liquid | 341
573.05 K, 4000 kPa, Fluid (supercritical or subcritical phases) | 228.1
573.37 K, 10000 kPa, Liquid | 414
573.6 K, 12000 kPa, Liquid | 454.4
573.69 K, 3500 kPa, Fluid (supercritical or subcritical phases) | 189
573.8 K, 3000 kPa, Fluid (supercritical or subcritical phases) | 135.4
573.9 K, 4500 kPa, Fluid (supercritical or subcritical phases) | 250.4
575.02 K, 4000 kPa, Fluid (supercritical or subcritical phases) | 217.1
575.57 K, 7000 kPa, Liquid | 332.6
576.28 K, 10000 kPa, Liquid | 408.7
576.53 K, 12000 kPa, Liquid | 451.3
577.56 K, 3000 kPa, Fluid (supercritical or subcritical phases) | 110.1
577.56 K, 4500 kPa, Fluid (supercritical or subcritical phases) | 236.5
577.86 K, 3500 kPa, Fluid (supercritical or subcritical phases) | 168.5
578.92 K, 7000 kPa, Liquid | 323.1
579.05 K, 4000 kPa, Fluid (supercritical or subcritical phases) | 198.3
579.36 K, 10000 kPa, Liquid | 400.8
579.57 K, 12000 kPa, Liquid | 444.1
582.19 K, 3000 kPa, Fluid (supercritical or subcritical phases) | 86.9
582.61 K, 3500 kPa, Fluid (supercritical or subcritical phases) | 144.9
583.28 K, 4500 kPa, Fluid (supercritical or subcritical phases) | 215.8
583.76 K, 4000 kPa, Fluid (supercritical or subcritical phases) | 181
584.07 K, 5000 kPa, Fluid (supercritical or subcritical phases) | 239.2
584.52 K, 6000 kPa, Fluid (supercritical or subcritical phases) | 280.5
584.97 K, 7000 kPa, Fluid (supercritical or subcritical phases) | 314.5
585.27 K, 8000 kPa, Fluid (supercritical or subcritical phases) | 351.8
585.51 K, 9000 kPa, Fluid (supercritical or subcritical phases) | 367.9
585.79 K, 10000 kPa, Fluid (supercritical or subcritical phases) | 392.1
585.88 K, 3000 kPa, Fluid (supercritical or subcritical phases) | 88.4
586.85 K, 3500 kPa, Fluid (supercritical or subcritical phases) | 124.2
587.72 K, 4500 kPa, Fluid (supercritical or subcritical phases) | 200.5
588.01 K, 4000 kPa, Fluid (supercritical or subcritical phases) | 166.2
588.39 K, 5000 kPa, Fluid (supercritical or subcritical phases) | 226.1
588.83 K, 6000 kPa, Fluid (supercritical or subcritical phases) | 270.2
589.14 K, 7000 kPa, Fluid (supercritical or subcritical phases) | 302.3
589.41 K, 8000 kPa, Fluid (supercritical or subcritical phases) | 337
589.67 K, 9000 kPa, Fluid (supercritical or subcritical phases) | 358.4
589.68 K, 3000 kPa, Fluid (supercritical or subcritical phases) | 93.7
589.93 K, 10000 kPa, Fluid (supercritical or subcritical phases) | 385.1
591.09 K, 3500 kPa, Fluid (supercritical or subcritical phases) | 108.6
591.69 K, 4500 kPa, Fluid (supercritical or subcritical phases) | 186.7
593.97 K, 5000 kPa, Fluid (supercritical or subcritical phases) | 206.7
594.05 K, 4000 kPa, Fluid (supercritical or subcritical phases) | 140.2
594.09 K, 6000 kPa, Fluid (supercritical or subcritical phases) | 255.1
594.28 K, 7000 kPa, Fluid (supercritical or subcritical phases) | 290.8
594.52 K, 8000 kPa, Fluid (supercritical or subcritical phases) | 322.3
594.74 K, 9000 kPa, Fluid (supercritical or subcritical phases) | 346.5
594.9 K, 3000 kPa, Fluid (supercritical or subcritical phases) | 102.1
594.94 K, 10000 kPa, Fluid (supercritical or subcritical phases) | 374.1
596.02 K, 3500 kPa, Fluid (supercritical or subcritical phases) | 100.7
597.28 K, 4500 kPa, Fluid (supercritical or subcritical phases) | 170.5
598.63 K, 4000 kPa, Fluid (supercritical or subcritical phases) | 125.5
599.12 K, 3000 kPa, Fluid (supercritical or subcritical phases) | 108.9
599.17 K, 5000 kPa, Fluid (supercritical or subcritical phases) | 192.7
599.18 K, 6000 kPa, Fluid (supercritical or subcritical phases) | 241.2
599.55 K, 7000 kPa, Fluid (supercritical or subcritical phases) | 276.6
599.72 K, 8000 kPa, Fluid (supercritical or subcritical phases) | 309.6
599.76 K, 3500 kPa, Fluid (supercritical or subcritical phases) | 95.6
600 K, 9000 kPa, Fluid (supercritical or subcritical phases) | 334
601 K, 10000 kPa, Fluid (supercritical or subcritical phases) | 358.1
601.1 K, 4500 kPa, Fluid (supercritical or subcritical phases) | 159.7
602.47 K, 4000 kPa, Fluid (supercritical or subcritical phases) | 114.3
603.01 K, 5000 kPa, Fluid (supercritical or subcritical phases) | 180.4
603.24 K, 6000 kPa, Fluid (supercritical or subcritical phases) | 226.2
603.85 K, 8000 kPa, Fluid (supercritical or subcritical phases) | 299
604.21 K, 9000 kPa, Fluid (supercritical or subcritical phases) | 324.3
605.28 K, 3000 kPa, Fluid (supercritical or subcritical phases) | 116.6
605.73 K, 3500 kPa, Fluid (supercritical or subcritical phases) | 94.8
606.87 K, 4000 kPa, Fluid (supercritical or subcritical phases) | 111.1
607.11 K, 4500 kPa, Fluid (supercritical or subcritical phases) | 144.8
607.61 K, 5000 kPa, Fluid (supercritical or subcritical phases) | 169.3
607.97 K, 6000 kPa, Fluid (supercritical or subcritical phases) | 215.3
608.4 K, 7000 kPa, Fluid (supercritical or subcritical phases) | 254.8
608.86 K, 8000 kPa, Fluid (supercritical or subcritical phases) | 285.3
609.24 K, 9000 kPa, Fluid (supercritical or subcritical phases) | 312.3
609.54 K, 10000 kPa, Fluid (supercritical or subcritical phases) | 340.1
610.17 K, 3000 kPa, Fluid (supercritical or subcritical phases) | 124.3
610.28 K, 3500 kPa, Fluid (supercritical or subcritical phases) | 103.2
611.94 K, 4500 kPa, Fluid (supercritical or subcritical phases) | 133.3
612.5 K, 4000 kPa, Fluid (supercritical or subcritical phases) | 108.7
613.58 K, 5000 kPa, Fluid (supercritical or subcritical phases) | 153.7
613.8 K, 6000 kPa, Fluid (supercritical or subcritical phases) | 204.8
614.19 K, 7000 kPa, Fluid (supercritical or subcritical phases) | 242.3
614.65 K, 8000 kPa, Fluid (supercritical or subcritical phases) | 273.2
614.76 K, 3000 kPa, Fluid (supercritical or subcritical phases) | 129.2
614.83 K, 3500 kPa, Fluid (supercritical or subcritical phases) | 111.5
615.18 K, 9000 kPa, Fluid (supercritical or subcritical phases) | 302
616.02 K, 4500 kPa, Fluid (supercritical or subcritical phases) | 128.5
616.33 K, 5000 kPa, Fluid (supercritical or subcritical phases) | 148.3
617.46 K, 4000 kPa, Fluid (supercritical or subcritical phases) | 110.4
619.43 K, 3000 kPa, Fluid (supercritical or subcritical phases) | 134.1
619.62 K, 3500 kPa, Fluid (supercritical or subcritical phases) | 119
619.76 K, 4500 kPa, Fluid (supercritical or subcritical phases) | 125.2
620.31 K, 5000 kPa, Fluid (supercritical or subcritical phases) | 144
622 K, 4000 kPa, Fluid (supercritical or subcritical phases) | 112.6
623.42 K, 5000 kPa, Fluid (supercritical or subcritical phases) | 141.6
623.5 K, 6000 kPa, Fluid (supercritical or subcritical phases) | 184.3
623.84 K, 7000 kPa, Fluid (supercritical or subcritical phases) | 224.1
624.5 K, 8000 kPa, Fluid (supercritical or subcritical phases) | 254.1
624.55 K, 3500 kPa, Fluid (supercritical or subcritical phases) | 124.9
624.66 K, 4000 kPa, Fluid (supercritical or subcritical phases) | 114.2
624.87 K, 9000 kPa, Fluid (supercritical or subcritical phases) | 283.1
624.89 K, 3000 kPa, Fluid (supercritical or subcritical phases) | 139.4
625 K, 4500 kPa, Fluid (supercritical or subcritical phases) | 125.1
625.29 K, 5000 kPa, Fluid (supercritical or subcritical phases) | 139.2
628.69 K, 4000 kPa, Fluid (supercritical or subcritical phases) | 120.4
629.77 K, 5000 kPa, Fluid (supercritical or subcritical phases) | 137.3
629.96 K, 3500 kPa, Fluid (supercritical or subcritical phases) | 132.1
630.15 K, 3000 kPa, Fluid (supercritical or subcritical phases) | 144.3
630.45 K, 4500 kPa, Fluid (supercritical or subcritical phases) | 126.6
632.06 K, 4000 kPa, Fluid (supercritical or subcritical phases) | 124.2
633.13 K, 5000 kPa, Fluid (supercritical or subcritical phases) | 137.6
633.62 K, 6000 kPa, Fluid (supercritical or subcritical phases) | 169.8
633.94 K, 7000 kPa, Fluid (supercritical or subcritical phases) | 204.8
634.48 K, 8000 kPa, Fluid (supercritical or subcritical phases) | 240.7
635.95 K, 3000 kPa, Fluid (supercritical or subcritical phases) | 149.3
635.97 K, 3500 kPa, Fluid (supercritical or subcritical phases) | 140
636.07 K, 4000 kPa, Fluid (supercritical or subcritical phases) | 131.6
636.31 K, 4500 kPa, Fluid (supercritical or subcritical phases) | 132
637.58 K, 5000 kPa, Fluid (supercritical or subcritical phases) | 140.4
638.73 K, 3500 kPa, Fluid (supercritical or subcritical phases) | 142.4
638.9 K, 3000 kPa, Fluid (supercritical or subcritical phases) | 152.4
639.03 K, 4500 kPa, Fluid (supercritical or subcritical phases) | 134.5
642.09 K, 5000 kPa, Fluid (supercritical or subcritical phases) | 144.1
642.28 K, 6000 kPa, Fluid (supercritical or subcritical phases) | 160.5
642.66 K, 4000 kPa, Fluid (supercritical or subcritical phases) | 142.7
642.75 K, 7000 kPa, Fluid (supercritical or subcritical phases) | 194.7
643.16 K, 8000 kPa, Fluid (supercritical or subcritical phases) | 229.4
